Laboratory results taken from US8802895B2, “Amide derivatives of benzene-sulfonanilide, pharmaceutical composition thereof and method for cancer treatment using the same” (Cleveland State University, priority 2010, dated 2014).

Columns and labels:
Format in all cases: cell-based
[1] = tested on: LOX IMVI; assay: NCIDTP 60 cancer cell lines screening, Melanoma panel
[2] = tested on: MALME-3M; assay: as above
[3] = tested on: MDA-MB-435; assay: as above
[4] = tested on: SK-MEL-5; assay: as above
[5] = tested on: OVCAR-3; assay: NCIDTP 60 cancer cell lines screening, Ovarian Cancer panel
[6] = tested on: OVCAR-4; assay: as above
[7] = tested on: OVCAR-5; assay: as above
[8] = tested on: OVCAR-8; assay: as above
[9] = tested on: SK-OV-3; assay: as above
[10] = tested on: cells; assay: Primary mechanism study: cell viability with compound #10 and 2-APB (FIG. 10); conditions: with and without 2-APB; cell viability after 48 hours
Description: For the experiment, 2-APB was first added. […] The control cells were treated with same amount of DMSO to carry the drugs. The cell viability was evaluated after 48 hours.

Cc1ccc(C)c(COc2cc(NC(=O)c3ccc4c(c3)OCO4)ccc2N(C)S(C)(=O)=O)c1 [Compound #10, Benzo[1,3]dioxole-5-carboxylic acid [3-(2,5-dimethyl-benzyloxy)-4-(methanesulfonyl-methyl-amino)-phenyl]-amide]
Percent Growth ([1]; Log10 Concentration −5.0 Molar): 21% | Percent Growth ([1]; Log10 Concentration −6.0 Molar): 13% | Percent Growth ([1]; Log10 Concentration −7.0 Molar): 41% | Percent Growth ([1]; Log10 Concentration −8.0 Molar): 91% | GI50 ([2]; Homo sapiens, Malme-3M): 0.229 µM | CC50 ([2]; Homo sapiens, Malme-3M, read-out: LC50): > 100 µM | TGI ([2]; MALME-3M): >1.00E−4 Molar | Percent Growth ([2]; MALME-3M, Log10 Concentration −4.0 Molar): 49% | Percent Growth ([2]; MALME-3M, Log10 Concentration −5.0 Molar): 40% | Percent Growth ([2]; MALME-3M, Log10 Concentration −6.0 Molar): 31% | Percent Growth ([2]; MALME-3M, Log10 Concentration −7.0 Molar): 61% | Percent Growth ([2]; MALME-3M, Log10 Concentration −8.0 Molar): 87% | GI50 ([3]; Homo sapiens, MDA-MB-435): 0.0285 µM | CC50 ([3]; Homo sapiens, MDA-MB-435, read-out: LC50): > 100 µM | TGI ([3]; MDA-MB-435): 9.14E−8 Molar | Percent Growth ([3]; MDA-MB-435, Log10 Concentration −4.0 Molar): −17% | Percent Growth ([3]; MDA-MB-435, Log10 Concentration −5.0 Molar): −28% | Percent Growth ([3]; MDA-MB-435, Log10 Concentration −6.0 Molar): −30% | Percent Growth ([3]; MDA-MB-435, Log10 Concentration −7.0 Molar): −4% | Percent Growth ([3]; MDA-MB-435, Log10 Concentration −8.0 Molar): 95% | GI50 ([4]; Homo sapiens, SK-MEL-5): 0.253 µM | CC50 ([4]; Homo sapiens, SK-MEL-5, read-out: LC50): 34.1 µM | TGI ([4]; SK-MEL-5): 1.65E−6 Molar | Percent Growth ([4]; SK-MEL-5, Log10 Concentration −4.0 Molar): −57% | Percent Growth ([4]; SK-MEL-5, Log10 Concentration −5.0 Molar): −42% | Percent Growth ([4]; SK-MEL-5, Log10 Concentration −6.0 Molar): 12% | Percent Growth ([4]; SK-MEL-5, Log10 Concentration −7.0 Molar): 76% | Percent Growth ([4]; SK-MEL-5, Log10 Concentration −8.0 Molar): 90% | TGI [5]: 1.66E−7 Molar | GI50 ([5]; Homo sapiens): 0.0396 µM | Percent Growth ([5]; Log10 Concentration −4.0 Molar): −32% | Percent Growth ([5]; Log10 Concentration −5.0 Molar): −44% | Percent Growth ([5]; Log10 Concentration −6.0 Molar): −67% | Percent Growth ([5]; Log10 Concentration −7.0 Molar): 19% | Percent Growth ([5]; Log10 Concentration −8.0 Molar): 96% | CC50 ([6]; Homo sapiens, OVCAR-4, read-out: LC50): > 100 µM | TGI ([6]; OVCAR-4): >1.00E−4 Molar | Percent Growth ([6]; OVCAR-4, Log10 Concentration −4.0 Molar): 56% | Percent Growth ([6]; OVCAR-4, Log10 Concentration −5.0 Molar): 47% | Percent Growth ([6]; OVCAR-4, Log10 Concentration −6.0 Molar): 54% | Percent Growth ([6]; OVCAR-4, Log10 Concentration −7.0 Molar): 90% | Percent Growth ([6]; OVCAR-4, Log10 Concentration −8.0 Molar): 87% | GI50 ([7]; Homo sapiens, OVCAR-5): 0.538 µM | CC50 ([7]; Homo sapiens, OVCAR-5, read-out: LC50): > 100 µM | TGI ([7]; OVCAR-5): >1.00E−4 Molar | Percent Growth ([7]; OVCAR-5, Log10 Concentration −4.0 Molar): 25% | Percent Growth ([7]; OVCAR-5, Log10 Concentration −5.0 Molar): 33% | Percent Growth ([7]; OVCAR-5, Log10 Concentration −6.0 Molar): 37% | Percent Growth ([7]; OVCAR-5, Log10 Concentration −7.0 Molar): 85% | Percent Growth ([7]; OVCAR-5, Log10 Concentration −8.0 Molar): 85% | GI50 ([8]; Homo sapiens, OVCAR-8): 0.265 µM | CC50 ([8]; Homo sapiens, OVCAR-8, read-out: LC50): > 100 µM | TGI ([8]; OVCAR-8): >1.00E−4 Molar | Percent Growth ([8]; OVCAR-8, Log10 Concentration −4.0 Molar): 6% | Percent Growth ([8]; OVCAR-8, Log10 Concentration −5.0 Molar): 8% | Percent Growth ([8]; OVCAR-8, Log10 Concentration −6.0 Molar): 10% | Percent Growth ([8]; OVCAR-8, Log10 Concentration −7.0 Molar): 80% | Percent Growth ([8]; OVCAR-8, Log10 Concentration −8.0 Molar): 94% | GI50 ([9]; Homo sapiens, SK-OV-3): 0.285 µM | CC50 ([9]; Homo sapiens, SK-OV-3, read-out: LC50): > 100 µM | TGI ([9]; SK-OV-3): >1.00E−4 Molar | Percent Growth ([9]; SK-OV-3, Log10 Concentration −4.0 Molar): 5% | Percent Growth ([9]; SK-OV-3, Log10 Concentration −5.0 Molar): 5% | Percent Growth ([9]; SK-OV-3, Log10 Concentration −6.0 Molar): 8% | Percent Growth ([9]; SK-OV-3, Log10 Concentration −7.0 Molar): 85% | Percent Growth ([9]; SK-OV-3, Log10 Concentration −8.0 Molar): 99% | cell death / cell viability, relation with calcium signal [10]: induces cell death that is at least partially related with calcium signal in the cells
